# Values of other authors as cited in paper doi:10.1101/2024.08.20.608791v1 (bioRxiv, 2024).
# How the values were obtained:
# [1] = oral bioavailability in animals, species not stated
# [2] = assay not specified
# [3] = test system: Caco-2
# [4] = <LOQ
Structure (SMILES),observed F in animals [1],in vitro permeability (in words) [2],solubility in water (in words) [4],other results
CC(=O)O[C@H]1C(=O)[C@@]2(C)[C@H]([C@H](OC(=O)c3ccccc3)[C@]34OC(=O)O[C@H]3[C@H](OC(=O)[C@H](O)[C@H](CC(C)C)NC(=O)OC(C)(C)C)C(C)=C1C4(C)C)[C@]1(OC(C)=O)CO[C@@H]1C[C@@H]2O [ortataxel],25%,moderate in vitro permeability,–,–
CC(C)c1nc(CN(C)C(=O)N[C@@H](CCN2CCOCC2)C(=O)N[C@H](CC[C@H](Cc2ccccc2)NC(=O)OCc2cncs2)Cc2ccccc2)cs1 [cobicistat],11-33%,–,–,–
C[C@H]1O[C@@H](O[C@H]2[C@@H](O)C[C@H](O[C@H]3[C@@H](O)C[C@H](O[C@H]4CC[C@@]5(C)[C@H](CC[C@@H]6[C@@H]5C[C@@H](O)[C@]5(C)[C@@H](C7=CC(=O)OC7)CC[C@]65O)C4)O[C@@H]3C)O[C@@H]2C)C[C@H](O)[C@@H]1O [Digoxin],–,–,–,Caco-2 permeability (in words) ([3]; Caco-2 experiments): moderate permeability; fa predicted using the Caco-2 assay ([3]; underprediction of human fa from Caco-2): ~50%
CC[C@@H]([C@H](C)O)n1ncn(-c2ccc(N3CCN(c4ccc(OC[C@@H]5CO[C@@](Cn6cncn6)(c6ccc(F)cc6F)C5)cc4)CC3)cc2)c1=O [posaconazole],52%,high in vitro permeability,practically insoluble in water,calculated log P (calculated): 5.4; experimentally determined log P (experimental): 2.4
C=C[C@@H]1C[C@]1(NC(=O)[C@@H]1C[C@@H](Oc2cc(-c3csc(NC(=O)C(C)C)n3)nc3c(Br)c(OC)ccc23)CN1C(=O)[C@@H](NC(=O)OC1CCCC1)C(C)(C)C)C(=O)O [faldaprevir],26-39%,–,–,–
CC[C@@H]1C[C@]1(NC(=O)[C@@H]1C[C@@H](Oc2cc(-c3csc(NC(C)C)n3)nc3c(Cl)c(OCCN4CCOCC4)ccc23)CN1C(=O)[C@@H](NC(=O)O[C@@H]1C[C@@H]2C[C@@H]2C1)C(C)(C)C)C(=O)O [vedroprevir],49-123%,low in vitro permeability,practically insoluble in water,–
